Blank lines part the entries; values can stand above or below the compound they belong to.
What was measured:
[1] = system: MV411 cells; test: Cell viability assay (CellTiter-Blue), MV411; assay type: cell-based; conditions: for IC50: Homo sapiens, MV4-11, MV411 (ITD-FLT3+), 72 hours treatment; for FLT3-ITD+ Selectivity (K562/MV411): ratio of K562 to MV411 IC50
Protocol: (§1) Cell viability in the presence of varying concentrations of the above listed compounds at different time points was used to assess cytotoxicity and the effect of the compounds on cell proliferation.
This procedure measures the conversion of the indicator dye (resazurin) to resorufin, an indicator of cell viability. […] Fluorescence values were measured at 535/590 nm using a Beckman-Coulter DTX-880 microplate reader.
Cells were grown to 70% confluency, trypsinized, counted, and seeded in 96 well flat-bottom plates at a final concentration of 2.5×10^3-5×10^3 cells/well (Day 0). Cells were allowed to incubate in growth media for 24 hours to allow for maximum adhesion. Treatment with the test agents or standard agents began on Day 1 and continued for 72 hours. At the 72-hour time point, treatment containing media was removed. […] Experiments were repeated at least twice with the same concentrations to determine growth inhibitory activity.
(§2) For single agent and combination studies, data from each experiment was collected and expressed as % Cell Growth using the following calculation: % Cell Growth=(ftest/fvehicle)×100 Where ftest is the fluorescence of the tested sample, and fvehicle is the fluorescence of the vehicle in which the drug is dissolved. Dose response graphs and IC50 values were generated using Prism 4 software (GraphPad) using the following equation: Y=(Top−Bottom)/(1+10^((logIC50-X)[…])) Where X is the logarithm of the concentration and Y is the response. Y starts at the Bottom and goes to the Top with a sigmoid shape.
(§3) The experiments also evaluated the selectivity of the compounds for inhibiting growth of cancer cells carrying a mutation in the Flt3 gene. The MV411 cell line expresses the mutant allele of Flt3 with internal tandem duplications (ITD) of the gene. See Quentmeier et al., “FLT3 Mutations in Acute Myeloid Leukemia Cell Lines,” Leukemia 17(1), 2003, 120-124. […] See Grafone et al., “Monitoring of FLT3 Phosphorylation Status and Its Response to Drugs By Flow Cytometry in AML Blast Cells,” Hematol Oncol. 26(3), 2008, 159-166.

[2] = system: K562 cells; test: Cell viability assay (CellTiter-Blue), K562; assay type: cell-based; conditions: Homo sapiens; K562 (does not express ITD-FLT3), 72 hours treatment
Protocol: as §1
Cell viability was measured by the […]-BLUE® cell viability assay from Promega (Madison, Wis.). This procedure measures the conversion of the indicator dye (resazurin) to resorufin, an indicator of cell viability. Following treatment, growth media was removed and cells were incubated with 20 μl of […]-BLUE® Reagent and growth media for 1-4 hours at 37° C. Fluorescence values were measured at 535/590 nm using a Beckman-Coulter DTX-880 microplate reader.
Cells were grown to 70% confluency, trypsinized, counted, and seeded in 96 well flat-bottom plates at a final concentration of 2.5×10^3-5×10^3 cells/well (Day 0). Cells were allowed to incubate in growth media for 24 hours to allow for maximum adhesion. Treatment with the test agents or standard agents began on Day 1 and continued for 72 hours. At the 72-hour time point, treatment containing media was removed. Viable cell numbers were quantified by the […]-BLUE® cell viability assay as described above. Experiments were repeated at least twice with the same concentrations to determine growth inhibitory activity. Results from these studies were used to calculate an IC50 value (concentration of drug that inhibits cell growth by 50 percent of control) for each compound.
as §2, §3

[3] = biological target: ROCK2 (Homo sapiens (Human), UniProt O75116); test: ROCK2 kinase inhibition assay (peptide phosphorylation, LabChip 3000); assay type: biochemical; conditions: 7 μM ATP, 2.5 nM ROCK2, 3 hours at 25° C.
Protocol: (§4) The peptide is >98% purity by Capillary Electrophoresis. The peptide is phosphorylated by the protein kinase ROCK1 or ROCK2. The ROCK1 or ROCK2 enzyme, substrate, and cofactors (ATP and Mg^2+) are combined in a well of a microtiter plate and incubated for 3 hours at 25° C. At the end of the incubation, the reaction is quenched by the addition of an EDTA-containing buffer. The substrate and product are separated and quantified electrophoretically using the microfluidic-based LABCHIP® 3000 Drug Discovery System from Caliper Life Sciences (Hopkinton, Mass.).
(§5) The components of the assay mixture are:
(§6) 10 μM Sodium Orthovanadate
(§7) 10 μM Beta-Glycerophosphate
(§8) 5 μM ATP (for ROCK1) or 7 μM ATP (for ROCK2)
(§9) 3 nM ROCK1 or 2.5 nM ROCK2 enzyme
(§10) Substrate and product peptides present in each sample are separated electrophoretically using the LABCHIP® 3000 capillary electrophoresis instrument. […] Change in the relative fluorescence intensity of the substrate and product peaks is the parameter measured reflecting enzyme activity. Capillary electrophoregramms (RDA acquisition files) are analyzed using HTS Well Analyzer software (Caliper Life Sciences, Hopkinton, Mass.). The kinase activity in each sample is determined as the product to sum ratio (PSR): P/(S+P), where P is the peak height of the product peptide and S is the peak height of the substrate peptide. For each compound, enzyme activity is measured at various concentrations (12 concentrations of compound spaced by 3× dilution intervals). Negative control samples (0%-inhibition in the absence of inhibitor) and positive control samples (100%-inhibition in the presence of 20 mM EDTA) are assembled in replicates of four and are used to calculate %-inhibition values for each compound at each concentration. Percent inhibition (Pinh) is determined using the following equation: Pinh=(PSR0%−PSRinh)/(PSR0%−PSR100%)*100 where PSRinh is the product sum ratio in the presence of inhibitor, PSR0% is the average product sum ratio in the absence of inhibitor, and PSR100% is the average product sum ratio in 100%-inhibition control samples. The IC50 values of inhibitors are determined by fitting the inhibition curves (Pinh versus inhibitor concentration) by 4 parameter sigmoidal dose-response model using XLfit 4 software (IBDS).

[4] = biological target: ROCK1 (Homo sapiens (Human), UniProt Q13464); test: ROCK1 kinase inhibition assay (peptide phosphorylation, LabChip 3000); assay type: biochemical; conditions: 5 μM ATP, 3 nM ROCK1, 3 hours at 25° C.
Protocol: as §4, §5, §6, §7, §8, §9
as §10, with “Negative control samples (0%-inhibition in the absence of inhibitor) and positive control samples (100%-inhibition in the presence of 20 mM EDTA) are assembled in replicates of four and are used to calculate %-inhibition values for each compound at each concentration.” left out

Chain of ROCK1 (Q13464 whole entry): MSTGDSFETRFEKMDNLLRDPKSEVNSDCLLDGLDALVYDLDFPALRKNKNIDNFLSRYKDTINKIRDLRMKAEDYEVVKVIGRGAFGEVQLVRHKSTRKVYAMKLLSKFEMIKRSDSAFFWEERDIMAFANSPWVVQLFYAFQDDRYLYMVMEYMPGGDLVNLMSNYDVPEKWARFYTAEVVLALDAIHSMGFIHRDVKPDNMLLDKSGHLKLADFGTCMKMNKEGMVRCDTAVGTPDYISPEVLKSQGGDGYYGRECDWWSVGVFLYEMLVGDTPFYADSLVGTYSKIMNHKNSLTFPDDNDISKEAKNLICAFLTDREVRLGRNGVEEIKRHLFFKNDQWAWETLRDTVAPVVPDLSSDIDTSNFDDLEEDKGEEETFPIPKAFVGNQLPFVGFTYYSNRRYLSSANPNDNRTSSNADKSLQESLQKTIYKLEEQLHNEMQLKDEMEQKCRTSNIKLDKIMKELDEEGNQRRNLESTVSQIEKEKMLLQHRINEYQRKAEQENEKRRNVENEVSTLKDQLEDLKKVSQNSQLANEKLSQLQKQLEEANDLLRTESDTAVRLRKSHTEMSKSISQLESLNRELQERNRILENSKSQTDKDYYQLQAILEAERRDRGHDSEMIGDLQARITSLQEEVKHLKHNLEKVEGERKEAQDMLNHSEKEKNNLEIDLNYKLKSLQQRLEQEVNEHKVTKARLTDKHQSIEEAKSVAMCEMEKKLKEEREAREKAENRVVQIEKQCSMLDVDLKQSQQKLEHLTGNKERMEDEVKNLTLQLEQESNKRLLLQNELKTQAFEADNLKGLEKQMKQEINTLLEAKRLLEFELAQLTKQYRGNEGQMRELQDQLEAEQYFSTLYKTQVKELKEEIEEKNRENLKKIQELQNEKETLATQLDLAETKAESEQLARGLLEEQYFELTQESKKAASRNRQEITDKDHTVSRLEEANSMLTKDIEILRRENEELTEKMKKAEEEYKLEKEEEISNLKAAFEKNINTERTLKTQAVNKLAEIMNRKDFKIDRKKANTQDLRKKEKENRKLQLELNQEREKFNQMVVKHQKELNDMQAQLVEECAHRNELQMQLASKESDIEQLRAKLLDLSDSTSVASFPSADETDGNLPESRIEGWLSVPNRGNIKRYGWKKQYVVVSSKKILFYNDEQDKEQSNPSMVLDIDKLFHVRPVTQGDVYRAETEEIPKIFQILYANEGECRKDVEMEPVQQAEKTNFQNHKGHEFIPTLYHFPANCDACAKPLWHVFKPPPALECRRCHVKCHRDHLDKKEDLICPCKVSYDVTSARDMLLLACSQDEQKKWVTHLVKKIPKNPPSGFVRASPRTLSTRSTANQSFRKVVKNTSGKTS
Chain of ROCK2 (O75116 whole entry): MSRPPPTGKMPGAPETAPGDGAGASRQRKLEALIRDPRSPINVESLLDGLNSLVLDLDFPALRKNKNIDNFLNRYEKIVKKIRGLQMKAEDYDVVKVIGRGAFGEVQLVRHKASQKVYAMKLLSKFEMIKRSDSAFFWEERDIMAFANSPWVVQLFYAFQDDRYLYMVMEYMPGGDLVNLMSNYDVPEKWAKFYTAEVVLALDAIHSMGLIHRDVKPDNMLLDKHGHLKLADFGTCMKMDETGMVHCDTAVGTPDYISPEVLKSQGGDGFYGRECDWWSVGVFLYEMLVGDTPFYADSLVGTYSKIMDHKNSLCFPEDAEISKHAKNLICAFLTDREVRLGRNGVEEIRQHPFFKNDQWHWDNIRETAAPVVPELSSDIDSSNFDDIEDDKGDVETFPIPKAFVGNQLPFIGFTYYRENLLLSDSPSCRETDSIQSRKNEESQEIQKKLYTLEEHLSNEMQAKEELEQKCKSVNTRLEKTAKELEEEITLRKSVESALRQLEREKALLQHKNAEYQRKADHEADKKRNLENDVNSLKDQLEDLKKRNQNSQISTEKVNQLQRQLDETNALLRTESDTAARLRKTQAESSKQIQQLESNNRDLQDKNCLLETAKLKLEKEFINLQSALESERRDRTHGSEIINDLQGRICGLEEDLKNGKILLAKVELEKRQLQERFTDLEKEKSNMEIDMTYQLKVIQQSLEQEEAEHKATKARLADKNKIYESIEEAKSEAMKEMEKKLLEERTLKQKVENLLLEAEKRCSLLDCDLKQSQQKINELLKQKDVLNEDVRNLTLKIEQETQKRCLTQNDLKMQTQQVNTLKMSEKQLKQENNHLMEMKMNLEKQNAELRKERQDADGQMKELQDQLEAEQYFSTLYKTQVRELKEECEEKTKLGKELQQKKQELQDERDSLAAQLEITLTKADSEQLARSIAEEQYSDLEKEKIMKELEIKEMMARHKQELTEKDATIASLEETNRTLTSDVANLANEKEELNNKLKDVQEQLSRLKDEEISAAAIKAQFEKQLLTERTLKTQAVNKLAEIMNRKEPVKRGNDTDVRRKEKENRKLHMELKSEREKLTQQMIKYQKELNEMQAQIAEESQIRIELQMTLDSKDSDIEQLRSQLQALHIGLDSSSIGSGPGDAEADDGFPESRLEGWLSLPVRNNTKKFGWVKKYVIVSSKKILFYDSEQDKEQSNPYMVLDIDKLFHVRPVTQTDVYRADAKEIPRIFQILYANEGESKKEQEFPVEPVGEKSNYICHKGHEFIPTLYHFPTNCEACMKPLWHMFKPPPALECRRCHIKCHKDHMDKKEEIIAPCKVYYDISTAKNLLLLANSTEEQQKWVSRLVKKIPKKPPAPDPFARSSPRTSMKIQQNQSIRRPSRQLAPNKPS

SMILES: CC(C)NC(=O)c1cccc(CNC(=O)c2cc3ccc(-c4cn[nH]c4)nc3s2)c1 [Compound 60]
IC50 [1]: 12.9 µM
FLT3-ITD+ Selectivity (K562/MV411) [1]: 5
IC50 [2]: 65 µM

SMILES: COc1cccc(CNC(=O)c2cc3ccc(-c4ccncc4)nc3s2)c1 [Compound 39]
IC50 [3]: 17.4 nM
IC50 [1]: 7.1 µM
FLT3-ITD+ Selectivity (K562/MV411) [1]: >14
IC50 [2]: > 100 µM
IC50 [4]: 65.1 nM

SMILES: COc1cccc([C@@H](CO)NC(=O)c2cc3ccc(-c4cn[nH]c4)nc3s2)c1 [Compound 61]
IC50 [3]: 7.1 nM
IC50 [1]: 8.2 µM
FLT3-ITD+ Selectivity (K562/MV411) [1]: 7
IC50 [2]: 54 µM

SMILES: COc1cccc(CN(CCN(C)C)C(=O)c2cc3ccc(-c4cn[nH]c4)nc3s2)c1 [Compound 59]
IC50 [3]: 20 nM
IC50 [1]: 4.5 µM
FLT3-ITD+ Selectivity (K562/MV411) [1]: 6
IC50 [2]: 25 µM

SMILES: COc1cccc([C@@H](C)NC(=O)c2cc3ccc(-c4cn[nH]c4)nc3s2)c1 [Compound 58]
IC50 [3]: 4.5 nM
IC50 [1]: 1.6 µM
FLT3-ITD+ Selectivity (K562/MV411) [1]: 19
IC50 [2]: 31 µM

SMILES: COc1cccc(CNC(=O)c2cc3ccc(-c4cn[nH]c4)nc3s2)c1 [Compound 40]
IC50 [3]: 17 nM
IC50 [1]: 14.8 µM
FLT3-ITD+ Selectivity (K562/MV411) [1]: >7
IC50 [4]: 164 nM

Second part, led by results:

IC50 [3]: 10.1 nM
SMILES: O=C(N[C@H](CO)c1cccc(Cl)c1)c1cc(-c2ccncc2)n[nH]1 [Compound 67]

IC50 [3]: 29.2 nM
SMILES: C[C@@H](NC(=O)c1cc(-c2ccncc2)n[nH]1)c1cccc(F)c1 [Compound 64]

IC50 [3]: 509 nM
SMILES: O=C(N[C@H](CO)c1ccccc1)c1cc(-c2ccncc2)n[nH]1 [Compound 68]

IC50 [3]: 27.6 nM
IC50 [2]: > 100 µM
IC50 [4]: 207 nM
SMILES: O=C(N[C@H](CO)c1cccc(F)c1)c1cc(-c2ccncc2)[nH]n1 [Compound 1]
FLT3-ITD+ Selectivity (K562/MV411) [1]: >1

IC50 [3]: 9.8 nM
SMILES: C[C@@H](NC(=O)c1cc(-c2ccncc2)n[nH]1)c1cccc(Cl)c1 [Compound 66]
